Laboratory results from patent publication US11414424B2, “Cardiac sarcomere inhibitors” (Cytokinetics, Inc., priority 2018, dated 2022).

test system: bovine cardiac myofibrils; assay: Myofibril assay: PK/LDH-coupled steady-state ATPase activity of skinned bovine cardiac myofibrils; assay type: biochemical; conditions: Ca2+ activating to 75% of maximal rate
Method in brief: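 Steady-state ATPase of detergent-skinned bovine left-ventricular myofibrils (1 mg/mL), PK/LDH-coupled NADH read at 340 nm, in PIPES/MgCl2 buffer pH 6.8 with 50 μM ATP, 0.6 mM EGTA and CaCl2 set for 50% or 75% activation. Inhibition of activity measured.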

CDMF75 IC15 | SMILES
0.2 µM | CNC(=O)c1ccc(N2CC3(C2)C(=O)N(c2ccc(C#N)cc2F)CC(=O)N3Cc2ccc(C(F)(F)F)cc2)cc1 [Compound 540, 4-(8-(4-cyano-2-fluorophenyl)-6,9-dioxo-5-(4-(trifluoromethyl)benzyl)-2,5,8-triazaspiro[3.5]nonan-2-yl)-N-methylbenzamide]
0.2 µM | CNc1cc(N2CC3(C2)C(=O)N(c2ccc(C#N)cc2F)CC(=O)N3Cc2ccc(C(F)(F)F)cc2)ccc1C(=O)OC [Compound 541, methyl 4-(8-(4-cyano-2-fluorophenyl)-6,9-dioxo-5-(4-(trifluoromethyl)benzyl)-2,5,8-triazaspiro[3.5]nonan-2-yl)-2-(methylamino)benzoate]
0.2 µM | CNC(=O)c1ccc(N2CC3(C2)C(=O)N(c2ccc(C#N)cc2F)CC(=O)N3Cc2ccc(C(F)(F)F)cc2)cc1NC [Compound 542, 4-(8-(4-cyano-2-fluoro-phenyl)-6,9-dioxo-5-(4-(trifluoromethyl)benzyl)-2,5,8-triazaspiro[3.5]nonan-2-yl)-N-methyl-2-(methylamino)benzamide]
0.3 µM | CNc1ccc(N2CC3(C2)C(=O)N(c2ccc(C#N)cc2F)CC(=O)N3Cc2ccc(C(F)(F)F)cc2)cc1C(=O)OC [Compound 543, methyl 5-(8-(4-cyano-2-fluorophenyl)-6,9-dioxo-5-(4-(trifluoromethyl)benzyl)-2,5,8-triazaspiro[3.5]nonan-2-yl)-2-(methylamino)-benzoate]
0.3 µM | CNc1cccc(N2CC3(C2)C(=O)N(c2ccc(C#N)cc2F)CC(=O)N3Cc2ccc(C(F)(F)F)cc2)c1C(=O)OC [Compound 544, methyl 2-(8-(4-cyano-2-fluorophenyl)-6,9-dioxo-5-(4-(trifluoromethyl)benzyl)-2,5,8-triazaspiro[3.5]nonan-2-yl)-6-(methylamino)-benzoate]
0.2 µM | CNC(=O)c1cc(N2CC3(C2)C(=O)N(c2ccc(C#N)cc2F)CC(=O)N3Cc2ccc(C(F)(F)F)cc2)ccc1NC [Compound 545, 5-(8-(4-cyano-2-fluorophenyl)-6,9-dioxo-5-(4-(trifluoromethyl)benzyl)-2,5,8-triazaspiro[3.5]nonan-2-yl)-N-methyl-2-(methylamino)benzamide]
1.0 µM | CNc1c(C(=O)OC)cccc1N1CC2(C1)C(=O)N(c1ccc(C#N)cc1F)CC(=O)N2Cc1ccc(C(F)(F)F)cc1 [Compound 546, methyl 3-(8-(4-cyano-2-fluorophenyl)-6,9-dioxo-5-(4-(trifluoromethyl)benzyl)-2,5,8-triazaspiro[3.5]nonan-2-yl)-2-(methylamino)-benzoate]
0.4 µM | CNC(=O)c1cccc(N2CC3(C2)C(=O)N(c2ccc(C#N)cc2F)CC(=O)N3Cc2ccc(C(F)(F)F)cc2)c1NC [Compound 547, 3-(8-(4-cyano-2-fluorophenyl)-6,9-dioxo-5-(4-(trifluoromethyl)benzyl)-2,5,8-triazaspiro[3.5]nonan-2-yl)-N-methyl-2-(methylamino)benzamide]
0.6 µM | O=C1CN(c2ncc(Cl)cc2F)C(=O)C2(CCC2)N1Cc1ccc(C(F)(F)F)cc1 [Compound 548, 8-(5-chloro-3-fluoropyridin-2-yl)-5-(4-(trifluoromethyl)-benzyl)-5,8-diazaspiro-[3.5]nonane-6,9-dione]
0.8 µM | O=C1CN(c2ncc(Cl)cc2F)C(=O)C2(CC2)N1Cc1ccc(C(F)(F)F)cc1 [Compound 550, 7-(5-chloro-3-fluoropyridin-2-yl)-4-(4-(trifluoromethyl)benzyl)-4,7-diazaspiro[2.5]octane-5,8-dione]
2.48 µM | O=C1CN(c2ncc(Cl)cc2F)C(=O)C2(COC2)N1Cc1ccc(C(F)(F)F)cc1 [Compound 551, 8-(5-chloro-3-fluoropyridin-2-yl)-5-(4-(trifluoromethyl)-benzyl)-2-oxa-5,8-diazaspiro[3.5]nonane-6,9-dione]
0.5 µM | CNC(=O)N1CC2(C1)C(=O)N(c1ncc(Cl)cc1F)CC(=O)N2Cc1ccc(C(F)(F)F)cc1 [Compound 552, 8-(5-chloro-3-fluoropyridin-2-yl)-N-methyl-6,9-dioxo-5-(4-(trifluoromethyl)-benzyl)-2,5,8-triazaspiro-[3.5]nonane-2-carboxamide]
1.4 µM | O=C1CN(c2ncc(Cl)cc2F)C(=O)C2(CCOC2)N1Cc1ccc(C(F)(F)F)cc1 (centres unmarked) [Compound 553, 9-(5-chloro-3-fluoropyridin-2-yl)-6-(4-(trifluoromethyl)-benzyl)-2-oxa-6,9-diazaspiro[4.5]decane-7,10-dione]
0.4 µM | CC(C)[C@H]1C(=O)N(c2ncc(Cl)cc2F)CC(=O)N1Cc1ccc(C(F)(F)F)cc1 [Compound 554, (S)-1-(5-chloro-3-fluoro-pyridin-2-yl)-3-isopropyl-4-(4-(trifluoromethyl)-benzyl)piperazine-2,5-dione]
0.9 µM | O=C1[C@H](C2CCC2)N(Cc2ccc(C(F)(F)F)cc2)C(=O)CN1c1ncc(Cl)cc1F [Compound 555, (S)-1-(5-chloro-3-fluoro-pyridin-2-yl)-3-cyclobutyl-4-(4-(trifluoromethyl)-benzyl)piperazine-2,5-dione]
2.7 µM | CC(=O)N1CC2(C1)C(=O)N(c1ncc(Cl)cc1F)CC(=O)N2[C@@H](C)c1ccc(Cl)cc1 [Compound 556, (S)-2-acetyl-8-(5-chloro-3-fluoropyridin-2-yl)-5-(1-(4-chlorophenyl)ethyl)-2,5,8-triazaspiro[3.5]nonane-6,9-dione]
7.04 µM | C[C@@H](c1ccc(Cl)cc1)N1C(=O)CN(c2ncc(Cl)cc2F)C(=O)C12COC2 [Compound 558]
25.1 µM | C[C@@H](c1ccc(Cl)cc1)N1C(=O)CN(c2ncc(Cl)cc2F)C(=O)C12CN(C(=O)NC1CC1)C2 [Compound 559, (S)-8-(5-chloro-3-fluoro-pyridin-2-yl)-5-(1-(4-chlorophenyl)ethyl)-N-cyclopropyl-6,9-dioxo-2,5,8-triazaspiro[3.5]-nonane-2-carboxamide]
8.6 µM | CCNC(=O)N1CC2(C1)C(=O)N(c1ncc(Cl)cc1F)CC(=O)N2[C@@H](C)c1ccc(Cl)cc1 [Compound 560, (S)-8-(5-chloro-3-fluoro-pyridin-2-yl)-5-(1-(4-chlorophenyl)ethyl)-N-ethyl-6,9-dioxo-2,5,8-triazaspiro[3.5]nonane-2-carboxamide]
19.8 µM | CC(C)NC(=O)N1CC2(C1)C(=O)N(c1ncc(Cl)cc1F)CC(=O)N2[C@@H](C)c1ccc(Cl)cc1 [Compound 561, (S)-8-(5-chloro-3-fluoro-pyridin-2-yl)-5-(1-(4-chlorophenyl)ethyl)-N-isopropyl-6,9-dioxo-2,5,8-triazaspiro[3.5]nonane-2-carboxamide]
29.0 µM | C[C@@H](c1ccc(Cl)cc1)N1C(=O)CN(c2ncc(Cl)cc2F)C(=O)C12CN(C(=O)NC1CCOCC1)C2 [Compound 562, (S)-8-(5-chloro-3-fluoro-pyridin-2-yl)-5-(1-(4-chlorophenyl)ethyl)-6,9-dioxo-N-(tetrahydro-2H-pyran-4-yl)-2,5,8-triazaspiro[3.5]nonane-2-carboxamide]
2.2 µM | CNC(=O)N1CC2(C1)C(=O)N(c1ncc(Cl)cc1F)CC(=O)N2[C@@H](C)c1ccc(Cl)cc1 [Compound 563, (S)-8-(5-chloro-3-fluoro-pyridin-2-yl)-5-(1-(4-chlorophenyl)ethyl)-N-methyl-6,9-dioxo-2,5,8-triazaspiro[3.5]nonane-2-carboxamide]
13.0 µM | CC(=O)N1CC2(C1)C(=O)N(c1ncc(C(F)F)cc1F)CC(=O)N2[C@@H](C)c1ccc(Cl)cc1 [Compound 564, (S)-2-acetyl-5-(1-(4-chlorophenyl)ethyl)-8-(5-(difluoromethyl)-3-fluoropyridin-2-yl)-2,5,8-triazaspiro[3.5]nonane-6,9-dione]
17.8 µM | CC(=O)N1CC2(C1)C(=O)N(c1ncc(C(F)(F)F)cc1F)CC(=O)N2[C@@H](C)c1ccc(Cl)cc1 [Compound 565, (S)-2-acetyl-5-(1-(4-chlorophenyl)ethyl)-8-(3-fluoro-5-(trifluoromethyl)-pyridin-2-yl)-2,5,8-triazaspiro[3.5]nonane-6,9-dione]
4.0 µM | C[C@@H](c1ccc(Cl)cc1)N1C(=O)CN(c2ncc(Cl)cc2F)C(=O)C12CN(CC(F)F)C2 [Compound 566, (S)-8-(5-chloro-3-fluoro-pyridin-2-yl)-5-(1-(4-chlorophenyl)ethyl)-2-(2,2-difluoroethyl)-2,5,8-triazaspiro[3.5]nonane-6,9-dione]
1.2 µM | COC(=O)N1CC2(C1)C(=O)N(c1ncc(Cl)cc1F)CC(=O)N2[C@@H](C)c1ccc(Cl)cc1 [Compound 567, methyl (S)-8-(5-chloro-3-fluoropyridin-2-yl)-5-(1-(4-chlorophenyl)ethyl)-6,9-dioxo-2,5,8-triazaspiro-[3.5]nonane-2-carboxylate]
1.2 µM | C[C@@H](c1ccc(Cl)cc1)N1C(=O)CN(c2ncc(Cl)cc2F)C(=O)C12CN(C=O)C2 [Compound 568, (S)-8-(5-chloro-3-fluoro-pyridin-2-yl)-5-(1-(4-chlorophenyl)ethyl)-6,9-dioxo-2,5,8-triazaspiro-[3.5]nonane-2-carbaldehyde]
2.6 µM | C[C@@H](c1ccc(Cl)cc1)N1C(=O)CN(c2ncc(Cl)cc2F)C(=O)C12CN(C(=O)OCC(F)F)C2 [Compound 569, 2,2-difluoroethyl (S)-8-(5-chloro-3-fluoropyridin-2-yl)-5-(1-(4-chlorophenyl)-ethyl)-6,9-dioxo-2,5,8-triazaspiro[3.5]nonane-2-carboxylate]
2.2 µM | CC(=O)N1CC2(C1)C(=O)N(c1ncc(Cl)cc1F)CC(=O)N2[C@@H](C)c1ccc(C(F)(F)F)cc1 [Compound 570, (S)-2-acetyl-8-(5-chloro-3-fluoropyridin-2-yl)-5-(1-(4-(trifluoromethyl)phenyl)-ethyl)-2,5,8-triazaspiro-[3.5]nonane-6,9-dione]
